Measurements: PubChem BioAssay (NCI)
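48-hour exposure; five concentrations; linearly interpolated endpoints. GI50: concentration for 50% inhibition of growth. Definition used: TGI = concentration required for complete inhibition of growth.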

Assays:
Assay in all cases: NCI tumour cell line growth inhibition, 48 h; in the data active = GI50 below about 0.43 µM; inactive = the rest
[1] = system: HCC-2998 colon
[2] = system: BT-549 breast
[3] = system: OVCAR-8 ovarian
[4] = system: PC-3 prostate
[5] = system: RPMI-8226 leukemia
[6] = system: SF-539 CNS
[7] = system: HOP-92 NSCLC
[8] = system: SF-268 CNS
[9] = system: UO-31 renal
[10] = system: SK-MEL-5 melanoma
[11] = system: SR leukemia
[12] = system: SF-295 CNS
[13] = system: HS 578T breast
[14] = system: RXF 393 renal
[15] = system: A549 NSCLC
[16] = system: MOLT-4 leukemia
[17] = system: CAKI-1 renal
[18] = system: A498 renal
[19] = system: SW-620 colon
[20] = system: HCT-15 colon
[21] = system: IGROV1 ovarian
[22] = system: SNB-75 CNS
[23] = system: NCI-H460 lung
[24] = system: SK-OV-3 ovarian
[25] = system: SN12C renal
[26] = system: NCI/ADR-RES ovarian
[27] = system: NCI-H522 lung
[28] = system: HOP-62 NSCLC
[29] = system: CCRF-CEM leukemia
[30] = system: TK-10 renal
[31] = system: OVCAR-5 ovarian
[32] = system: SK-MEL-2 melanoma
[33] = system: K-562 leukemia
[34] = system: COLO 205 colon
[35] = system: DU-145 prostate
[36] = system: U251 CNS
[37] = system: NCI-H226 lung
[38] = system: 786-0 renal
[39] = system: SNB-19 CNS
[40] = system: EKVX NSCLC
[41] = system: UACC-257 melanoma
[42] = system: KM12 colon
[43] = system: OVCAR-3 ovarian
[44] = system: HCT-116 colon
[45] = system: M14 melanoma
[46] = system: MDA-MB-231 breast
[47] = system: MCF7 breast
[48] = system: ACHN renal
[49] = system: NCI-H23 lung
[50] = system: UACC-62 melanoma
[51] = system: T-47D breast
[52] = system: MDA-MB-435
[53] = system: SK-MEL-28 melanoma
[54] = system: MALME-3M melanoma
[55] = system: HT29 colon

COc1cccc(/C(COc2ccc3c(c2)oc(=O)c2ccccc23)=N\O)c1
77.2 µM: TGI [17]
38.3 µM: TGI [14]
44.3 µM: TGI [6]
96 µM: TGI [25]
52.8 µM: TGI [52]
66.2 µM: TGI [40]
82.1 µM: TGI [50]
81.8 µM: TGI [18]
inactive: GI50 [1] 44.1 µM | GI50 [2] 23 µM | GI50 [3] 20.8 µM | GI50 [4] 29.5 µM | GI50 [5] 30.3 µM | GI50 [6] 18.3 µM | GI50 [7] 71.8 µM | GI50 [8] > 100 µM | GI50 [9] 17.3 µM | GI50 [10] 17.1 µM | GI50 [11] 10.3 µM | GI50 [12] 33.3 µM | GI50 [13] 67.1 µM | GI50 [14] 18.4 µM | GI50 [15] 16.9 µM | GI50 [16] 6.63 µM | GI50 [17] 26.1 µM | GI50 [18] 30.5 µM | GI50 [19] 42.5 µM | GI50 [20] 37.2 µM | GI50 [21] 28.4 µM | GI50 [22] 25.7 µM | GI50 [23] > 100 µM | GI50 [24] > 100 µM | GI50 [25] 32.8 µM | GI50 [26] 20 µM | GI50 [27] 20.6 µM | GI50 [28] 37 µM | GI50 [29] 23.2 µM | GI50 [30] 33.7 µM | GI50 [31] > 100 µM | GI50 [32] 28.6 µM | GI50 [33] 13.6 µM | GI50 [34] 25.8 µM | GI50 [35] 16.9 µM | GI50 [36] 34.4 µM | GI50 [37] 27.7 µM | GI50 [38] 16.9 µM | GI50 [39] 52 µM | GI50 [40] 12.5 µM | GI50 [41] 25 µM | GI50 [42] 15.1 µM | GI50 [43] 45 µM | GI50 [44] 13.2 µM | GI50 [45] 32 µM | GI50 [46] 22.2 µM | GI50 [47] > 100 µM | GI50 [48] 26.7 µM | GI50 [49] 33.6 µM | GI50 [50] 24.8 µM | GI50 [51] 29.4 µM | GI50 [52] 19.9 µM | GI50 [53] 84.7 µM | GI50 [54] 33 µM | GI50 [55] 29.6 µM
34.3 µM: TGI [9]
54 µM: TGI [3]
> 100 µM: TGI [1] | TGI [4] | TGI [5] | TGI [7] | TGI [8] | TGI [11] | TGI [12] | TGI [13] | TGI [19] | TGI [20] | TGI [23] | TGI [24] | TGI [26] | TGI [28] | TGI [29] | TGI [30] | TGI [31] | TGI [36] | TGI [39] | TGI [43] | TGI [45] | TGI [47] | TGI [48] | TGI [49] | TGI [51] | TGI [53] | TGI [55]
61.1 µM: TGI [41]
33.4 µM: TGI [44]
58.5 µM: TGI [21]
35 µM: TGI [16]
60.7 µM: TGI [35]
58 µM: TGI [38]
57.9 µM: TGI [2]
61.3 µM: TGI [27]
64.5 µM: TGI [46]
35.7 µM: TGI [10]
75.9 µM: TGI [34]
90.1 µM: TGI [54]
85.3 µM: TGI [33]
76.7 µM: TGI [22]
69 µM: TGI [32]
51.1 µM: TGI [15]
62 µM: TGI [37]
39.1 µM: TGI [42]
